IC50 data for 52 compounds are collected here from patent publication US8530460B2, “Azetidine derivatives” (Boehringer Ingelheim International GmbH, priority 2011, dated 2013).

The IC50 is the midpoint of a concentration-inhibition curve. Low values mean inhibition by little substance, high ones a need for much substance.

The structures appear in SMILES notation.

In the assay the target is human ACC2 (Homo sapiens (Human), UniProt O00763). As to the kind of experiment: ACC2 assay (spectrophotometric 384 well assay, NADH-linked coupled lactate dehydrogenase/pyruvate kinase). Type of assay: biochemical. To be noted: hACC2 construct lacking 128 N-terminal amino acids; 25° C., 340 nm, 15 minutes. The method, then:
Spectrophotometric 384 Well Assay
Malonyl CoA formation by acetyl CoA carboxylases is stoichometrically linked to the consumption of ATP. ACC2 activity is measured in a NADH-linked kinetic method measuring ADP generated during the ACC reaction using a coupled lactate dehydrogenase/pyruvate kinase reaction.
For biological testing, a human ACC2 construct which lacks the 128 amino acids at the N-terminus for increased solubility (nt 385-6966 in Genbank entry AJ575592) is cloned. The protein is then expressed in insect cells using a baculoviral expression system. Protein purification is performed by anion exchange.
All compounds are dissolved in dimethyl sulfoxide (DMSO) to a concentration of 10 mM.
Assay reactions are then carried out in 384-well plates, with hACC2 in an appropriate dilution and at final assay concentrations (f.c.) of 100 mM Tris (pH 7.5), 10 mM trisodium citrate, 25 mM KHCO3, 10 mM MgCl2, 0.5 mg/ml BSA, 3.75 mM reduced L-glutathione, 15 U/ml lactate dehydrogenase, 0.5 mM phosphoenolpyruvate, 15 U/ml pyruvate kinase, compounds at different concentrations at final DMSO concentrations of 1%.
The enzymatic reaction is then started by addition of a mixture of NADH, acetyl Coenzyme A (both 200 μM f.c.) and ATP (500 uM f.c.). The decrease of the optical density (slope S) is then determined at 25° C. at a wavelength of 340 nm over 15 minutes in a spectrophotometric reader.
Each assay microtiter plate contains wells with vehicle instead of compound as controls for the non-inhibited enzyme (100% CTL; ‘HIGH’) and wells without acetyl-CoA as controls for non-specific NADH degradation (0% CTL; ‘LOW’).
The slope S is used for calculation of % CTL=(S(compound)−S(‘LOW’))/(S(‘HIGH’)—S(‘LOW’))*100. Compounds will give values between 100% CTL (no inhibition) and 0% CTL (complete inhibition).
For IC50 value determination, the sample slope in the presence of the test compound after subtraction of the low controls (S(compound)−S(‘LOW’)) are used.
An IC50 value is derived from the compound slopes at different dosages after subtraction of the low controls (S(compound)−S(‘LOW’)) by non-linear regression curve fitting (equation y=(A+((B−A)/(1+((C/x)^D))))).

Chain of human ACC2 (O00763 129-2458): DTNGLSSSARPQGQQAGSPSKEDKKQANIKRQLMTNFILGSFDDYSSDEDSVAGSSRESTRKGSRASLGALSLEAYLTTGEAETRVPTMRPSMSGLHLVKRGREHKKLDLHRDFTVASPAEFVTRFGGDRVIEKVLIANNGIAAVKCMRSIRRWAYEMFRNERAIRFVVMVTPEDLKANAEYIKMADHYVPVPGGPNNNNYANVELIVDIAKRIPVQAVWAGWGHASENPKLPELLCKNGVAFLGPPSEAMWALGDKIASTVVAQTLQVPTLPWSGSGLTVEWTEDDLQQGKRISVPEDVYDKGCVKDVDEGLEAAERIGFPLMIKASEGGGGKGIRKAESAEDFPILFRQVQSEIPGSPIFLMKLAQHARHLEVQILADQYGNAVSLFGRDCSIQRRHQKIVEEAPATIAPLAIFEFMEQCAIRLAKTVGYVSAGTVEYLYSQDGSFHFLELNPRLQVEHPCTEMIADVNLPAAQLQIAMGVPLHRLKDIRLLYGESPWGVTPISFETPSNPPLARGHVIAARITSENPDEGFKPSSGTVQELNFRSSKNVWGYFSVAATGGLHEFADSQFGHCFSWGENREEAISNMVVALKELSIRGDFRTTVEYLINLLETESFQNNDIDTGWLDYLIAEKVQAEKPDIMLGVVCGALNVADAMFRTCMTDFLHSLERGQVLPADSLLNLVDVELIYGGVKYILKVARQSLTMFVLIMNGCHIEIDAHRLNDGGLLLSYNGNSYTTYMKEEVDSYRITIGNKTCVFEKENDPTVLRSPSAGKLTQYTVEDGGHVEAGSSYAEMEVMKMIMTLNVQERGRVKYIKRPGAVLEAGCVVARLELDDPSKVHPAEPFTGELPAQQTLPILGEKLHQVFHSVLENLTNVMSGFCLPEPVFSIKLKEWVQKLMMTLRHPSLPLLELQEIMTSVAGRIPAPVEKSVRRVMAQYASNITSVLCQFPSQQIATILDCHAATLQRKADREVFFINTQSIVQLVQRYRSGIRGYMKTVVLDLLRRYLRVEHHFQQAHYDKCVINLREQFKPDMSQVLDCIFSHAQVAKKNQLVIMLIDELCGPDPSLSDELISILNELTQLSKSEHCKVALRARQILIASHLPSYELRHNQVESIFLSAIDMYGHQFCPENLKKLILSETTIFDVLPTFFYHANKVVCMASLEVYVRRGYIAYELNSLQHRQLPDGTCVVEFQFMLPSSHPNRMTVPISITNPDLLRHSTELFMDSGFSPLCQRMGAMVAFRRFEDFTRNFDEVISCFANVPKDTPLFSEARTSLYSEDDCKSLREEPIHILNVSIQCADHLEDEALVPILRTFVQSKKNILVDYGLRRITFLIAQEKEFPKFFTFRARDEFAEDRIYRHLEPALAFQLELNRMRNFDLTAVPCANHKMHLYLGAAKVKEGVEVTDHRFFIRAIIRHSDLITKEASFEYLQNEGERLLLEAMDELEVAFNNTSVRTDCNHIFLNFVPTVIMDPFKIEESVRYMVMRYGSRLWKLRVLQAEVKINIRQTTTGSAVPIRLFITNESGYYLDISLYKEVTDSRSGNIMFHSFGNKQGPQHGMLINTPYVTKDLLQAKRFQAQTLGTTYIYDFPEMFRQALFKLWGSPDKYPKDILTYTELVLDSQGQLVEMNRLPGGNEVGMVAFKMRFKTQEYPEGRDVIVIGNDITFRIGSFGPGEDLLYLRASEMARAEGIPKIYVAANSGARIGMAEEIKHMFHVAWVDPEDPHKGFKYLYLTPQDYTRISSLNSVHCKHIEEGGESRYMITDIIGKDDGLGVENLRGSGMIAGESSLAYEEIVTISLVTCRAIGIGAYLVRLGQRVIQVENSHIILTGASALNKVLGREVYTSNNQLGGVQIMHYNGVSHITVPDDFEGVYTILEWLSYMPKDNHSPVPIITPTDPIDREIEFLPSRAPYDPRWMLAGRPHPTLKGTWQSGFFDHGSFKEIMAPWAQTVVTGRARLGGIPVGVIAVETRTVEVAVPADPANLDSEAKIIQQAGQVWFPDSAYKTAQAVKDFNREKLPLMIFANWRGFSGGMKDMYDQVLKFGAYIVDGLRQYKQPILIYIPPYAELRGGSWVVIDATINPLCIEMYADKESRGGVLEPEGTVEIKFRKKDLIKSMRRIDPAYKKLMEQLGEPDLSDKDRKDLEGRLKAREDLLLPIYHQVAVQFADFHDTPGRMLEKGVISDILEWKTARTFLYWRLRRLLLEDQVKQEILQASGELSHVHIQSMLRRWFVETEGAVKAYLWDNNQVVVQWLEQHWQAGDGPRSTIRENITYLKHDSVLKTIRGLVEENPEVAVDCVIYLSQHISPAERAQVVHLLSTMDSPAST

Turning to `CC(=O)N[C@@H](C)c1ccc(OC2CN(c3ccc(OCC4CC4)cc3)C2)cn1` (stereo in doubt) [Example 14, N-(1-{5-[1-(4-Cyclopropylmethoxy-phenyl)-azetidin-3-yloxy]-pyridin-2-yl}-ethyl)-acetamide], the midpoint of inhibition, the IC50, lay at 2040 nM.

Take `CC(=O)NC(C)c1ccc(OC2CN(c3ccc(C(C)(C)C)cc3)C2)cc1` (stereo not shown) [Example 1.1, N-(1-(4-(1-(4-tert-Butylphenyl)azetidin-3-yloxy)phenyl)ethyl)acetamide]: half-maximal inhibition (IC50) was put at 180 nM.

Regarding `CC(=O)NC(C)c1ccc(OC2CN(c3ccc4c(c3)OCCO4)C2)cc1` (stereo not shown) [Example 1.2], inhibition was half-maximal at 240 nM (IC50).

Consider `CC(=O)NC(C)c1ccc(OC2CN(c3ccc(OC4CC4)cc3)C2)cc1` (stereo not shown) [Example 1.3], for which the IC50 stood at 530 nM.

The compound `CC(=O)NC(C)c1ccc(OC2CN(c3ccc(OC4CCC4)cc3)C2)cc1` (stereo not shown) [Example 1.4] gave an IC50 of 130 nM.

In turn, `CCOc1ccc(N2CC(Oc3ccc(C(C)NC(C)=O)cc3)C2)cc1` (stereo not shown) [Example 1.5] came in with an IC50 of 200 nM.

`CC(=O)NC(C)c1ccc(OC2CN(c3ccc(OC4CCCC4)cc3)C2)cc1` (stereo not shown) [Example 1.6] registered an IC50 of 80 nM.

Compound `CCNc1ncc(N2CC(Oc3ccc(C(C)NC(C)=O)cc3)C2)cn1` (stereo not shown) [Example 1.7] registered an IC50 of 1250 nM.

Consider `CC(=O)NC(C)c1ccc(OC2CN(c3ncc(Br)cn3)C2)cc1` (stereo not shown) [Example 1.8], for which the IC50 turned out to be 550 nM.

For the compound `CCCOc1ccc(N2CC(Oc3ccc(C(C)NC(C)=O)cc3)C2)cn1` (stereo not shown) [Example 1.9], half-maximal inhibition (IC50) required 560 nM.

`CC(=O)NC(C)c1ccc(OC2CN(c3cnc(OC4CCC4)nc3)C2)cc1` (stereo not shown) [Example 1.10] yielded an IC50 of 670 nM.

The compound `CC(=O)NC(C)Cc1ccc(OC2CN(c3ccc(C(C)(C)C)cc3)C2)cc1` (stereo not shown) [Example 1.11] returned an IC50 of 2210 nM.

`CCOc1ccc(N2CC(Oc3ccc(CC(C)NC(C)=O)cc3)C2)cc1` (stereo not shown) [Example 1.12] had an IC50 of 5340 nM.

Turning to `CCCOc1ccc(N2CC(Oc3ccc([C@H](C)NC(C)=O)cc3)C2)cc1` [Example 1.13], 70 nM corresponded to half-maximal inhibition (IC50).

In the case of `CC(=O)N[C@@H](C)c1ccc(OC2CN(c3ccc(OCC4CC4)cc3)C2)cc1` [Example 1.14], the IC50 turned out to be 70 nM.

Regarding `CC(=O)N[C@@H](C)c1ccc(OC2CN(c3cnc(NC4CCC4)nc3)C2)cc1` [Example 1.15], the IC50 was 180 nM.

Compound `CC(=O)N[C@@H](C)c1ccc(OC2CN(c3ccc4c(c3)OCCCO4)C2)cc1` [Example 1.16] gave an IC50 of 450 nM.

The compound `CCOc1ccc(N2CC(Oc3ccc([C@H](C)NC(C)=O)cc3)C2)c(OC)c1` [Example 1.17] registered an IC50 of 1890 nM.

With `CC(=O)N[C@@H](C)c1ccc(OC2CN(c3ccc4c(c3)OCC(C)(C)CO4)C2)cc1` [Example 1.18], 140 nM corresponded to half-maximal inhibition (IC50).

With `CCOc1ccc(N2CC(Oc3ccc([C@H](C)NC(C)=O)cc3)C2)cc1` [Example 1.19], the IC50 stood at 90 nM.

With `COc1cc(OC2CCC2)ccc1N1CC(Oc2ccc([C@H](C)NC(C)=O)cc2)C1` [Example 1.20], the midpoint of inhibition, the IC50, lay at 490 nM.

The compound `CCCOc1ccc(N2CC(Oc3ccc([C@H](C)NC(C)=O)cc3)C2)c(OC)c1` [Example 1.21] had an IC50 of 190 nM.

The compound `COc1ccc(N2CC(Oc3ccc([C@H](C)NC(C)=O)cc3)C2)c(C#N)c1` [Example 1.22] registered an IC50 of 1180 nM.

As to `CC(=O)N[C@@H](C)c1ccc(OC2CN(c3ccc(C(F)(F)F)cc3C#N)C2)cc1` [Example 1.23], the IC50 was 2810 nM.

With `CC(=O)N[C@@H](C)c1ccc(OC2CN(c3ccc4c(c3)OCCO4)C2)cc1` [Example 1.24], it took 120 nM to reach half-maximal inhibition (IC50).

As to `CCCOc1ccc(N2CC(Oc3ccc([C@H](C)NC(C)=O)cc3)C2)c(C#N)c1` [Example 1.25], it took 580 nM to reach half-maximal inhibition (IC50).

`CC(=O)N[C@@H](C)c1ccc(OC2CN(c3ccc4c(c3)OC(F)(F)O4)C2)cc1` [Example 1.26] returned an IC50 of 740 nM.

Regarding `CC(=O)N[C@@H](C)c1ccc(OC2CN(c3ccc4oc(C)nc4c3)C2)cc1` [Example 1.27], 1750 nM corresponded to half-maximal inhibition (IC50).

`CC(=O)N[C@@H](C)c1ccc(OC2CN(c3ccc4oc(-c5ccccc5)nc4c3)C2)cc1` [Example 1.28] displayed an IC50 of 1620 nM.

In turn, `CC(=O)N[C@@H](C)c1ccc(OC2CN(c3ccc4c(c3)OCCCC4(C)C)C2)cc1` [Example 1.29] yielded an IC50 of 190 nM.

The compound `CCOc1cccc(N2CC(Oc3ccc([C@H](C)NC(C)=O)cc3)C2)c1` [Example 1.30] returned an IC50 of 670 nM.

`CCCOc1ccc(N2CC(Oc3ccc([C@H](C)NC(=O)N(C)C)cc3)C2)cc1` [Example 1.31] came in with an IC50 of 190 nM.

Take `C[C@H](NC(=O)N(C)C)c1ccc(OC2CN(c3ccc(OC4CC4)cc3)C2)cc1` [Example 1.32]: half-maximal inhibition (IC50) required 190 nM.

Take `C[C@H](NC(=O)N(C)C)c1ccc(OC2CN(c3ccc(OCC4CC4)cc3)C2)cc1` [Example 1.33]: the IC50 came out at 200 nM.

`C[C@H](NC(=O)N(C)C)c1ccc(OC2CN(c3ccc4c(c3)OCCO4)C2)cc1` [Example 1.34] yielded an IC50 of 340 nM.

Turning to `CCCOc1ccc(N2CC(Oc3ccc([C@H](C)NC(=O)C4CC4)cc3)C2)cc1` [Example 1.35], it took 60 nM to reach half-maximal inhibition (IC50).

`COc1cc(OCC2CC2)ccc1N1CC(Oc2ccc([C@H](C)NC(C)=O)cc2)C1` [Example 1.36] gave an IC50 of 2830 nM.

`COc1cc(OC(C)C)ccc1N1CC(Oc2ccc([C@H](C)NC(C)=O)cc2)C1` [Example 1.37] showed an IC50 of 2270 nM.

In the case of `CCC(C)Oc1ccc(N2CC(Oc3ccc([C@H](C)NC(C)=O)cc3)C2)c(OC)c1` (stereo partly shown) [Example 1.38], half-maximal inhibition (IC50) required 2310 nM.

As to `C[C@H](NC(=O)C1CC1)c1ccc(OC2CN(c3ccc(OC4CC4)cc3)C2)cc1` [Example 1.39], the IC50 is 350 nM.

`C[C@H](NC(=O)C1CC1)c1ccc(OC2CN(c3ccc(OCC4CC4)cc3)C2)cc1` [Example 1.40] showed an IC50 of 1030 nM.

For the compound `C[C@H](NC(=O)C1CC1)c1ccc(OC2CN(c3ccc4c(c3)OCCO4)C2)cc1` [Example 1.41], half-maximal inhibition (IC50) required 1230 nM.

`CCCOc1cccc(N2CC(Oc3ccc([C@H](C)NC(=O)N(C)C)cc3)C2)c1` [Example 1.42] displayed an IC50 of 1050 nM.

With `COc1cc(OC2CC2)ccc1N1CC(Oc2ccc([C@H](C)NC(C)=O)cc2)C1` [Example 1.43], inhibition was half-maximal at 1290 nM (IC50).

The compound `CC(=O)N[C@@H](C)c1ccc(OC2CN(c3ccc(OC4CC4)cc3C)C2)cc1` [Example 1.44] had an IC50 of 250 nM.

In the case of `CC(=O)N[C@@H](C)c1ccc(OC2CN(c3c(F)cc(OC4CC4)cc3F)C2)cc1` [Example 1.45], the IC50 stood at 130 nM.

`CC(=O)N[C@@H](C)c1ccc(OC2CN(c3ccc(OC4CCC4)cc3C#N)C2)cc1` [Example 1.46]: the IC50 came out at 170 nM.

`CC(=O)N[C@@H](C)c1ccc(OC2CN(c3ccc(OCC4CC4)cc3C#N)C2)cc1` [Example 1.47] had an IC50 of 400 nM.

Turning to `CCCOc1cccc(N2CC(Oc3ccc([C@H](C)NC(C)=O)cc3)C2)c1` [Example 1.48], it took 1020 nM to reach half-maximal inhibition (IC50).

Compound `CC(=O)N[C@@H](C)c1ccc(OC2CN(c3cccc(OCC(C)C)c3)C2)cc1` [Example 1.49] yielded an IC50 of 1130 nM.

For `CCOc1ccc(N2CC(Oc3ccc([C@H](C)NC(C)=O)cc3)C2)nc1` [Example 1.51], the IC50 amounted to 270 nM.

For `CCCOc1ccc(N2CC(Oc3ccc([C@H](C)NC(C)=O)cc3)C2)nc1` [Example 1.52], half-maximal inhibition (IC50) required 90 nM.
